Experimental data: patent US20260001898A1, “Heteroaryl compounds as inhibitors of TYK2/JAK1, composition and application thereof” (Accro Bioscience (HK) Limited, priority 2022, published 2026)

Tests used:
JAK1 JH2 = JAK1 JH2 (Homo sapiens (Human), UniProt P23458); assay: Competitive binding assay
Method: (§1) For most assays, kinase-tagged T7 phage strains were prepared in an E. coli host derived from the BL21 strain. E. coli were grown to log-phase and infected with T7 phage and incubated with shaking at 32° C. until lysis. The lysates were centrifuged and filtered to remove cell debris. The remaining kinases were produced in HEK-293 cells and subsequently tagged with DNA for qPCR detection. Streptavidin coated magnetic beads were treated with biotinylated small molecule ligands for 30 minutes at room temperature to generate affinity resins for kinase assays. The liganded beads were blocked with excess biotin and washed with blocking buffer (SeaBlock (Pierce), 1% BSA, 0.05% Tween 20, 1 mM DTT) to remove unbound ligand and to reduce non-specific binding. […] Test compounds were prepared as 111X stocks in 100% DMSO. Dissociation constants (Kds) were determined using an 11-point 3-fold compound dilution series with three DMSO control points. […] The compounds were then diluted directly into the assays such that the final concentration of DMSO was 0.9%. All reactions performed in polypropylene 384-well plate. Each was a final volume of 0.02 ml. […] The beads were then re-suspended in elution buffer (1×PBS, 0.05% Tween 20, 0.5 μM nonbiotinylated affinity ligand) and incubated at room temperature with shaking for 30 minutes. The kinase concentration in the eluates was measured by qPCR.
(§2) An 11-point 3-fold serial dilution of each test compound was prepared in 100% DMSO at 100× final test concentration and subsequently diluted to 1× in the assay (final DMSO concentration=1%). Most Kds were determined using a compound top concentration=30,000 nM. If the initial Kd determined was <0.5 nM (the lowest concentration tested), the measurement was repeated with a serial dilution starting at a lower top concentration.
(§3) Binding constants (Kds) were calculated with a standard dose-response curve using the Hill equation: […]
(§4) The Hill Slope was set to −1.
(§5) Curves were fitted using a non-linear least square fit with the Levenberg-Marquardt algorithm.

TYK2 JH2 = TYK2 JH2 (Homo sapiens (Human), UniProt P29597); assay: Competitive binding assay
TYK2 JH2, sequence (P29597 589-875): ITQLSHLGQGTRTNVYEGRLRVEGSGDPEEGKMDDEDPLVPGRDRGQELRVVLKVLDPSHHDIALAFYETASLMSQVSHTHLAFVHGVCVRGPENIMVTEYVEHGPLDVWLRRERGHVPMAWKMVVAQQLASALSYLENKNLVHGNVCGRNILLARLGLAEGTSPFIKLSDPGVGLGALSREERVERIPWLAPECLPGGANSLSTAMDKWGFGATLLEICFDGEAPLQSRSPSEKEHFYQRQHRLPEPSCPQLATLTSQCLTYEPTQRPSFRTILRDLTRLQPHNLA
Method: as §1, §2, §3, §4, §5

JAK3 JH1 = JAK3 JH1 (Homo sapiens (Human), UniProt P52333); assay: Competitive binding assay
JAK3 JH1, sequence (P52333 822-1111): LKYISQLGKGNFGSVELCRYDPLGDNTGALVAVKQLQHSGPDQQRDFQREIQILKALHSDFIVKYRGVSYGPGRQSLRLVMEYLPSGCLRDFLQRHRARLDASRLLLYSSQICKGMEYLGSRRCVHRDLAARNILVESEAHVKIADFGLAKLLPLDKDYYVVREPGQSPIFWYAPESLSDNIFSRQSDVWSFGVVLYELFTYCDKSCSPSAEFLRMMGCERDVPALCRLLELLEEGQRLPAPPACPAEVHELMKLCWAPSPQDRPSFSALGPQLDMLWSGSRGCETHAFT
Method: as §1, §2, §3, §4, §5

JAK2 JH1 = JAK2 JH1 (Homo sapiens (Human), UniProt O60674); assay: Competitive binding assay
JAK2 JH1, sequence (O60674 849-1124): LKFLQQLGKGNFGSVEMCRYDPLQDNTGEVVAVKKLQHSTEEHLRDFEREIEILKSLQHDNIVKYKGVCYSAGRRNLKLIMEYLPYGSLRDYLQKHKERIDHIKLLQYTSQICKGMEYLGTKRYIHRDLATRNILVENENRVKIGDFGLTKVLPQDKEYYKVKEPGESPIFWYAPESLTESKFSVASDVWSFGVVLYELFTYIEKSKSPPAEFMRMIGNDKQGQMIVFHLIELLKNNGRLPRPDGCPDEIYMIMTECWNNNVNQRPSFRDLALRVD
Method: as §1, §2, §3, §4, §5

TYK2 JH1 = TYK2 JH1 (Homo sapiens (Human), UniProt P29597); assay: Competitive binding assay
TYK2 JH1, sequence (P29597 897-1176): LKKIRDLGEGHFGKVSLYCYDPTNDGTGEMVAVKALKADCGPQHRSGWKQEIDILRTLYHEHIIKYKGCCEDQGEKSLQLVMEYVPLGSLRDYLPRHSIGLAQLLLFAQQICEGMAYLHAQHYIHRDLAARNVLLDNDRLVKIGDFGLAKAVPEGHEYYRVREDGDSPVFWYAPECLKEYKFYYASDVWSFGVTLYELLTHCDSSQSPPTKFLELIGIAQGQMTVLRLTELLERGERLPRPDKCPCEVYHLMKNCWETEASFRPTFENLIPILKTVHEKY
Method: as §1, §2, §3, §4, §5

JAK1 JH1 = JAK1 JH1 (Homo sapiens (Human), UniProt P23458); assay: Competitive binding assay
JAK1 JH1, sequence (P23458 875-1153): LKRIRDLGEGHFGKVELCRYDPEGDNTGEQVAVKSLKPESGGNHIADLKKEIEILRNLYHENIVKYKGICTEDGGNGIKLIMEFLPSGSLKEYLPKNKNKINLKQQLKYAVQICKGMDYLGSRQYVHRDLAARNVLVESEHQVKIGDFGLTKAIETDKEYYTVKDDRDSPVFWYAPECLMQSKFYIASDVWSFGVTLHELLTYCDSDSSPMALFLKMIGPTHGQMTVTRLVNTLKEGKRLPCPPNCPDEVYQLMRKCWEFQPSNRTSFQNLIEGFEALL
Method: as §1, §2, §3, §4, §5

[1] = tested on: IFNα induced TYK2/JAK1 mediated STAT activation; assay: Luciferase assay in L929 ISRE cells stimulated with IFN-α; format: cell-based; settings: Mus musculus, IFN-α 100 ng/mL
JAK1/JAK2 pathway = assay: Western blot p-STAT1/STAT1 in IFN-γ-stimulated HT-29 cells; format: cell-based; settings: IFN-γ 100 ng/mL
Method: HT-29 cells were digested by trypsin and suspended in Dulbecco's Modified Eagle Medium (DMEM) and counted. The tested compounds were added into the 6 well plates (400 000/per well). After 2 hours, IFN-γ (100 ng/mL) was added to stimulate cells for 30 minutes. The cells were collected and lysed with protein lysate. The protein was quantitatively tested by BCA kit. Finally, p-STAT1/STAT1 and internal reference protein β-actin were detected by Western blot.

[2] = tested on: IFNα induced CXCL-10 in PBMC; assay: ELISA of IFNα induced CXCL-10 in PBMC; format: cell-based
Method: • 1. Soak plate: Add 300 μL 1× washing solution and let stand for 30 seconds. After discarding the washing solution, anhydrous the microporous plate on absorbent paper. • 2. Add standard: Add 100 μL of 2-fold standard to standard well. Add 100 μL standard dilution (serum/plasma sample) or culture medium (cell culture supernatant sample) to blank well. • 3. Add sample: Serum/plasma: Add 50 μL 1× assay buffer and 50 μL sample to sample well. Cell culture supernatant: Add 100 μL cell culture supernatant to sample well. • 4. Add detection antibody: Add 50 μL diluted detection antibody (1:100 diluted) to each well. Make sure steps 4, 5 and 6 are added continuously without interruption. The sampling process was completed within 15 minutes. • 5. Incubation: Use sealing plate film to seal the plate. Shake at 300 rpm and incubate for 2 hours at room temperature. • 6. Washing: Discard the liquid, add 300 μL of washing solution and wash the plate 6 times. Pat anhydrous on blotting paper after each wash. To obtain the desired experimental performance, the residual liquid must be completely removed. • 7. Enzyme addition: Add 100 μL diluted horseradish peroxidase labeled streptavidin to each well (1:100 diluted). • 8. Incubation: Seal the plate with a new sealing film. Shake at 300 rpm and incubate at room temperature for 45 minutes. • 9. Washing: Repeat […]. • 10. Add substrate for color development: Add 100 μL of color development substrate TMB to each well, keep away from light, and incubate at room temperature for 5-30 minutes. • 11. Add Stop Solution: Add 100 μL stop solution to each well. The color changed from blue to yellow. If the color appears green or the color changes unevenly, gently tap the frame of the plate to mix well. • 12. Assay readout: Within 30 minutes, perform dual wavelength detection using a microplate reader to measure the OD at the absorption maximum at 450 nm and reference wavelengths at 570 nm or 630 nm. The calibrated OD value is the measured value at 450 nm minus the measured value at 570 nm or 630 nm.

[3] = tested on: JAK1 JH2 and TYK2 JH2 versus JAK1 JH1, JAK2 JH1, JAK3 JH1 and TYK2 JH1; assay: Competitive binding assay, selectivity JH2 versus JH1 domains
Method: For most assays, kinase-tagged T7 phage strains were prepared in an E. coli host derived from the BL21 strain. E. coli were grown to log-phase and infected with T7 phage and incubated with shaking at 32° C. until lysis. The lysates were centrifuged and filtered to remove cell debris. The remaining kinases were produced in HEK-293 cells and subsequently tagged with DNA for qPCR detection. Streptavidin coated magnetic beads were treated with biotinylated small molecule ligands for 30 minutes at room temperature to generate affinity resins for kinase assays. The liganded beads were blocked with excess biotin and washed with blocking buffer (SeaBlock (Pierce), 1% BSA, 0.05% Tween 20, 1 mM DTT) to remove unbound ligand and to reduce non-specific binding. […] Test compounds were prepared as 111X stocks in 100% DMSO. Dissociation constants (Kds) were determined using an 11-point 3-fold compound dilution series with three DMSO control points. […] The compounds were then diluted directly into the assays such that the final concentration of DMSO was 0.9%. […] The kinase concentration in the eluates was measured by qPCR.
An 11-point 3-fold serial dilution of each test compound was prepared in 100% DMSO at 100× final test concentration and subsequently diluted to 1× in the assay (final DMSO concentration=1%). Most Kds were determined using a compound top concentration=30,000 nM. […]

JAK1 JH2, sequence (P23458 583-855): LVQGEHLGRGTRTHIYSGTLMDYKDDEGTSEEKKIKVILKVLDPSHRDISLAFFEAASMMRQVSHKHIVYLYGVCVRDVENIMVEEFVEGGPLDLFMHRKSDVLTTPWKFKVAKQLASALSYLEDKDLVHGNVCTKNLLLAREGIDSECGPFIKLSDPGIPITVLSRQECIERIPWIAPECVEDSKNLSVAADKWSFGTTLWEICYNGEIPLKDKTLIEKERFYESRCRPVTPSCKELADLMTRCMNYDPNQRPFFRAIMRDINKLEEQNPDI

- Kd (JAK1 JH2): 0.02 ± 0.002 nM
- affinity to JAK1 JH2 (JAK1 JH2): strong affinity
- Kd (TYK2 JH2): 0.0044 ± 0.003 nM
- affinity to TYK2 JH2 (TYK2 JH2): strong affinity
- Kd (JAK3 JH1): 210 ± 15 nM
- affinity to JAK3 JH1 (JAK3 JH1): weak affinity
- Kd (JAK2 JH1): 790 ± 40 nM
- affinity to JAK2 JH1 (JAK2 JH1): weak affinity
- Kd (TYK2 JH1): 550 ± 50 nM
- affinity to TYK2 JH1 (TYK2 JH1): weak affinity
- Kd (JAK1 JH1): 6900 ± 900 nM
- affinity to JAK1 JH1 (JAK1 JH1): weak affinity
- selectivity to bind JAK1 JH2 and TYK2 JH2 than JAK1 JH1, JAK2 JH1, JAK3 JH1 and TYK2 JH1 [3]: more than 10,000 times
SMILES: COc1c(Nc2cc(NC(=O)C3CC3)nnc2C(N)=O)cccc1-c1cc(P(=O)(C2CC2)C2CC2)n(C)n1 [Compound A1, 6-(cyclopropanecarboxamido)-4-((3-(5-(dicyclopropylphosphoryl)-1-methyl-1H-pyrazol-3-yl)-2-methoxyphenyl)amino)pyridazine-3-carboxamide]
- inhibition at 0.05 µM ([1]; 50 nM compound, read-out: Inhibitory activity % (50 nM)): 34%
- inhibition at 0.2 µM ([1]; 200 nM compound, read-out: Inhibitory activity % (200 nM)): 87%
- inhibition at 1 µM ([1]; 1000 nM compound, read-out: Inhibitory activity % (1000 nM)): 98%
- effect on downstream STAT1 phosphorylation induced by IFN-γ (JAK1/JAK2 pathway) (JAK1/JAK2 pathway): inhibited JAK1/JAK2 pathway in a concentration-dependent manner
- inhibition of IFNα induced CXCL-10 in PBMC [2]: effectively inhibited IFNα induced CXCL-10 in PBMC
- IC50 ([2]; IFNα induced CXCL-10 in PBMC): 6.3 nM
